2 compounds from US20200187502A1, “MICROBIOCIDAL OXADIAZOLE DERIVATIVES” (SYNGENTA PARTICIPATIONS AG, priority 2017, published 2020) can be followed below.

A value given as a limit tells only on which side of the number the result lay.

One data set relates to Phakopsora pachyrhizi. Put plainly: Fungicidal activity, soybean leaf disc preventative (Asian soybean rust). The format is in vivo. The following applies: foliar, 200 ppm in the applied formulation, soybean leaf disks, compared to untreated control, 12 to 14 days after application, read-out: disease control. The gist of the method: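 Read-out is percent disease control relative to untreated check discs, assessed once untreated discs show adequate disease, 12 to 14 days after application. Compounds, tested at 200 ppm in the applied formulation, are sprayed onto soybean leaf discs one day before inoculation with a spore suspension.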

Data set [1] concerns Glomerella lacenarium (Colletotrichum lacenarium). The experiment in a line: Fungicidal activity, liquid culture, cucumber preventative (anthracnose). The following applies: 20 ppm in the applied formulation, liquid culture in PDB, inhibition of growth measured photometrically 3 to 4 days after application, compared to untreated control, read-out: disease control. The format is cell-based. The gist of the method:
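Conidia from cryogenic storage were mixed into potato dextrose broth and added to DMSO solutions of test compound in microtiter plates. Plates were incubated at 24° C. and growth inhibition read photometrically 3 to 4 days after application, as percent antifungal activity versus untreated check.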

The test system of data set [2] is Puccinia recondita f. Sp. Tritici. Put plainly: Fungicidal activity, wheat leaf disc preventative (brown rust). It is filed as in vivo. The following applies: foliar, 200 ppm in the applied formulation, wheat leaf segments cv. Kanzler, compared to untreated control, 7 to 9 days after application, read-out: disease control. The gist of the method:
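Wheat cv. Kanzler leaf segments on agar were sprayed with formulated compound in water, then inoculated with spores 1 day later. Incubated at 19° C, 75% rh, 12 h light/12 h dark; percent disease control versus untreated scored 7 to 9 days after application.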

For data set [3] the test system is unchanged. Put plainly: Fungicidal activity, wheat leaf disc curative (brown rust). It is filed as in vivo. The note with it: foliar, 200 ppm in the applied formulation, wheat leaf segments cv. Kanzler, curative (applied 1 day after inoculation), compared to untreated control, 6 to 8 days after application, read-out: disease control. The gist of the method: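 Wheat cv. Kanzler leaf segments on agar were inoculated with fungal spore suspension, held dark at 19° C and 75% RH, then sprayed 1 day later with formulated compound diluted in water. Incubation continued at 19° C, 75% RH, 12 h light/12 h dark; percent disease control versus untreated was scored 6 to 8 days after application.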

The melting point is the temperature of the solid-liquid transition. Take `CNC(=O)N(Cc1ccc(-c2noc(C(F)(F)F)n2)s1)OC` [Compound 1.2, 1-methoxy-3-methyl-1-[[5-[5-(trifluoromethyl)-1,2,4-oxadiazol-3-yl]-2-thienyl]methyl]urea]: the melting point is 93.2 to 95.7 °C. In the data set on Phakopsora pachyrhizi, the pest or weed control at 200 ppm is at least 80%. Besides, in data set [1], the inhibition of growth at 20 ppm was at least 80%. Besides, in data set [2], the pest or weed control at 200 ppm was at least 80%. For the same compound, the pest or weed control at 200 ppm in data set [3] was at least 80%.
As to `CON(Cc1ccc(-c2noc(C(F)(F)F)n2)s1)C(=O)NC1CC1` [Compound 1.27, 3-cyclopropyl-1-methoxy-1-[[5-[5-(trifluoromethyl)-1,2,4-oxadiazol-3-yl]-2-thienyl]methyl]urea], the melting point lay in the range of 82.2 to 83.8 °C. Further, the pest or weed control at 200 ppm with Phakopsora pachyrhizi is at least 80%. In data set [1], the inhibition of growth at 20 ppm is at least 80%. The pest or weed control at 200 ppm in data set [2] was at least 80%. Moreover, in data set [3], the pest or weed control at 200 ppm was at least 80%.
